This is an account of results in patent publication US11331299B2, “Medicinal use of serrulatane diterpenes” (The University of Sydney, priority 2016, dated 2022).

Read-outs that look alike come from different tables or passages of the source.

One may read the EC50 as the concentration at which the effect is half-maximal. What is called GI50 is the concentration at which growth is held to half of that of the control. For orientation: IC50 means the concentration needed to halve the response being measured. Broadly, the inhibition is the change of the read-out against control, counted positive when it falls.

Assay [1] concerns 639-V. As to the kind of experiment: OncoPanel cell proliferation assay (10-day). Type of assay: cell-based, human. The note with it: for EC50 / GI50 / IC50: Homo sapiens, Bladder; for EC50: read-out: Cell Count EC50; for GI50: read-out: Cell Count GI50; for IC50: read-out: Cell Count IC50.
For assay [2], the target named is T1, Histamine H2 (Homo sapiens, UniProt P25021).
T1 construct: expressed in transfected cells; host or cells: CHO-K1 cells
T1 sequence (P25021 whole entry): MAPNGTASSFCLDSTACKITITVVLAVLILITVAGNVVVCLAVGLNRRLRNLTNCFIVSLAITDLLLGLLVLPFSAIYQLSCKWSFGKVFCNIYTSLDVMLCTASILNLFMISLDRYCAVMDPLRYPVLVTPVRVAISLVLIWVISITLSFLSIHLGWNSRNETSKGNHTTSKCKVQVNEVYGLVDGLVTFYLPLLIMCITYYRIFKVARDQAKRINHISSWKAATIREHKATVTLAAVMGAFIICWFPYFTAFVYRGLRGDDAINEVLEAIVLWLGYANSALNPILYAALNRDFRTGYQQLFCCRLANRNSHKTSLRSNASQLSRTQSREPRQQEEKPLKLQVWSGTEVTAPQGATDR
As to the kind of experiment: Histamine H2 radio ligand binding. On the procedure:
The in vitro pharmacological studies were conducted by Eurofins PanLab (Taiwan) using the parameters shown in Table 13 with respect to appropriate literature references.

Assay [3] addresses T2, PHF20(1) Tudor domain (Homo sapiens, UniProt Q9BVI0).
T2 construct: Crystal structures of the Tudor domains of human PHF20; Eurofins CEREP (France), contract laboratory
T2 sequence (Q9BVI0 4-69 limits assumed): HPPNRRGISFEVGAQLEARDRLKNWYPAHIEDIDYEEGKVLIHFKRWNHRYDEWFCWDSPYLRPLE
In words: Epigenetic binding assay, Tudor domain. The conditions noted are these: read-out: % Inhibition of Control Specific Binding.

Assay [4] has as its target T3, HDAC11 (h) (Homo sapiens, UniProt Q96DB2).
T3 sequence (Q96DB2 1-347): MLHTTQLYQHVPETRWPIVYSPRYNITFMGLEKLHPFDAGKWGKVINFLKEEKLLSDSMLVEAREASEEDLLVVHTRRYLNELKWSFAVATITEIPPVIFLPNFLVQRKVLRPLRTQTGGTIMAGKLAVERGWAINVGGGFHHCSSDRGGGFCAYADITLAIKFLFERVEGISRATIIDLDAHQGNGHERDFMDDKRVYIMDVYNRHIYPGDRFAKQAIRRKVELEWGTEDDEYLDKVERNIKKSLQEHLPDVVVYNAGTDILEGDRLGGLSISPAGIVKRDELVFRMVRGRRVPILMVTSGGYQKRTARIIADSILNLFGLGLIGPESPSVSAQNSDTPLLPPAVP
In words: Epigenetic enzyme assay, Histone deacetylase (HDACs). Type of assay: biochemical. The conditions noted are these: read-out: % Inhibition of Control Values.

The target of assay [5] is T4, FBXL11 (h) (Homo sapiens, UniProt Q9Y2K7).
T4 sequence (Q9Y2K7 1-1162): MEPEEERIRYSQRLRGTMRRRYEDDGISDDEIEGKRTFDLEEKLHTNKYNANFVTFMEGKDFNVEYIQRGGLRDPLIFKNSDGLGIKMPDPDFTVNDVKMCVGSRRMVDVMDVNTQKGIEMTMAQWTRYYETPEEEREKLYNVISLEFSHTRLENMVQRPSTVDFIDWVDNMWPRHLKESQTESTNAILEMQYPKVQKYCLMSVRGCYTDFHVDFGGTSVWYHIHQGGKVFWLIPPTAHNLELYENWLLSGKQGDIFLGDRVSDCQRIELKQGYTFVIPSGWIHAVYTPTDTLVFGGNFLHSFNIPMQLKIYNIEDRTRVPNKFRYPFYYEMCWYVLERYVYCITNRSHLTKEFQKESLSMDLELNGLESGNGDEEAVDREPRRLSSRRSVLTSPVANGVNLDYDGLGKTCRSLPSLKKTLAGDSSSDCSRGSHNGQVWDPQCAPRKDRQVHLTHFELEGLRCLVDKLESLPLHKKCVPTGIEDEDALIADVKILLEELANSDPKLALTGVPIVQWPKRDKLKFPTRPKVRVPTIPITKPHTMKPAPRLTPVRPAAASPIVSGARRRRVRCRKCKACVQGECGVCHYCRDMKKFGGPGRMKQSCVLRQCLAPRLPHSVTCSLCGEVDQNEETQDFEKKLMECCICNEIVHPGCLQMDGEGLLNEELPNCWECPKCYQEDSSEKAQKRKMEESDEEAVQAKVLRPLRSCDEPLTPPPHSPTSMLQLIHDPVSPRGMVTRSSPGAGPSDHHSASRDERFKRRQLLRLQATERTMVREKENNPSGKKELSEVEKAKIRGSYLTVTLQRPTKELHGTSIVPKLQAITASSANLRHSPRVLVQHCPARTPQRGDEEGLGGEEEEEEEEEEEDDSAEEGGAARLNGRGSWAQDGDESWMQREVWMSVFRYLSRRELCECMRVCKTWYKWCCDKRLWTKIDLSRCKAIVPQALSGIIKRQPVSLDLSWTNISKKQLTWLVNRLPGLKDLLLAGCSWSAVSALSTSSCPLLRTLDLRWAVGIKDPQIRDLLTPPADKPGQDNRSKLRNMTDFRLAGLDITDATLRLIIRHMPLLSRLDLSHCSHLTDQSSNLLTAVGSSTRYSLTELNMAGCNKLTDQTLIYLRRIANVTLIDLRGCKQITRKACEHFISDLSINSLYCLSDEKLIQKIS
As to the kind of experiment: Epigenetic enzyme assay, Demethylases (KDMs). Type of assay: biochemical. The conditions noted are these: read-out: % Inhibition of Control Values.

Setting [6] is: assay year 2014, read-out: % Control Response.
Where [7] appears, read: assay year 2015, read-out: % Control Response.

On to `CC(C)=CCC[C@@H]1C(O)Oc2c(C)cc(O)c3c2[C@H]1CC[C@H]3C` (stereo partly drawn) [Compound 2, 5,18-epoxyserrulat-14-en-8,18-diol], for which the EC50 in assay [1] amounted to 6.54 µM. The GI50 in assay [1] worked out at 7.98 µM. In addition, in assay [1], the IC50 was found to be 8 µM. For the same compound, the remaining activity at 10 µM in assay [2] (setting [6]) is 24%; in assay [2] (setting [7]), -5%. Also, the figures for the inhibition at 10 µM in assay [3], in assay [4] and in assay [5] were 2%, -47% and 2%, respectively.

For the compound `CC(C)=CCC[C@@H]1COc2c(C)cc(O)c3c2[C@H]1CC[C@H]3C` [Compound 3, 5,18-epoxy-8-hydroxyserrulat-14-ene], the remaining activity at 10 µM in assay [2] (setting [7]) was 66%. For the same compound, the inhibition at 10 µM in assay [3] is 2%; in assay [4], -130%; in assay [5], 11%.

`CC(C)=CCC[C@H](CO)[C@@H]1CC[C@@H](C)c2c1cc(C)c(O)c2O` [Compound 1, 7,8,18-trihydroxyserrulat-14-ene]: the “Relative cell count (%) Mean” value worked out at 15.8% in assay [1] (3.00E+00 microM); 0.0% in assay [1] (3.00E+01 microM); 92.6% in assay [1] (3.01E−01 microM); 103.6% in assay [1] (3.01E−02 microM); 96.1% in assay [1] (3.02E−03 microM); 0.3% in assay [1] (9.49E+00 microM). The “Relative cell count (%) Mean” value in assay [1] (9.51E−01 microM) stood at 91.9%; in assay [1] (9.52E−02 microM), 91.6%; in assay [1] (9.53E−03 microM), 101.2%; in assay [1] (9.55E−04 microM) it was 92.0%. Besides, the EC50 in assay [1] turned out to be 2.01 µM. Besides, the GI50 in assay [1] is 2.01 µM. For the same compound, the 50% inhibitory concentration (IC50) in assay [1] is 2.01 µM. The results for the remaining activity at 10 µM in assay [2] (setting [6]) and in assay [2] (setting [7]) were 67% and 73%, respectively. Besides, the values for the inhibition at 10 µM in assay [3], in assay [4] and in assay [5] were 7%, 27% and 34%, respectively.

In the case of `CC(C)=CCC[C@H](C)[C@@H]1CC[C@@H](C)c2c1cc(C)c(O)c2O` [Compound 4, 7,8-dihydroxyserrulat-14-ene], in assay [1], the EC50 stood at 12 µM, the GI50 stood at 12 µM and the half-inhibitory concentration (IC50) came out at 12 µM.
